In the supplement of paper PMC10307832:

Key:
Assay in all cases: relative viability (nuclei count vs DMSO), 5 days (fraction); higher = more cells survive
LCLC-97TM1 = system: LCLC-97TM1
Summary of the method: (§1)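 Relative viability was taken as the ratio of nuclei in treated wells to nuclei in vehicle wells. Lung cancer cell lines in 1536-well plates received compounds by pin tool one day after seeding, either one drug alone or a fixed anchor-drug dose plus five library-drug doses (not always all listed) in √10 steps. Nuclei were counted on 4× images after 5 days of treatment, and values are medians of duplicate plates.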

NCI-H661 = system: NCI-H661
Summary of the method: as §1

NCI-H1651 = system: NCI-H1651
Summary of the method: as §1

NCI-H650 = system: NCI-H650
Summary of the method: as §1

NCI-H358 = system: NCI-H358
Summary of the method: as §1

NCI-H2087 = system: NCI-H2087
Summary of the method: as §1

NCI-H2342 = system: NCI-H2342
Summary of the method: as §1

SK-MES-1 = system: SK-MES-1
Summary of the method: as §1

NCI-H596 = system: NCI-H596
Summary of the method: as §1

PC-3 [JPC-3] = system: PC-3 [JPC-3]
Summary of the method: as §1

NCI-H1355 = system: NCI-H1355
Summary of the method: as §1

NCI-H1975 = system: NCI-H1975
Summary of the method: as §1

NCI-H838 = system: NCI-H838
Summary of the method: as §1

NCI-H1944 = system: NCI-H1944
Summary of the method: as §1

LXF-289 = system: LXF-289
Summary of the method: as §1

NCI-H1666 = system: NCI-H1666
Summary of the method: as §1

LU99A = system: LU99A
Summary of the method: as §1

ChaGo-K-1 = system: ChaGo-K-1
Summary of the method: as §1

LC-2-ad = system: LC-2-ad
Summary of the method: as §1

LK-2 = system: LK-2
Summary of the method: as §1

BEN = system: BEN
Summary of the method: as §1

HCC-78 = system: HCC-78
Summary of the method: as §1

CC(=O)O[C@@]12CO[C@@H]1C[C@H](O)[C@@]1(C)C(=O)[C@H](O)C3=C(C)[C@@H](OC(=O)[C@H](O)[C@@H](NC(=O)OC(C)(C)C)c4ccccc4)C[C@@](O)([C@@H](OC(=O)c4ccccc4)[C@H]21)C3(C)C [Docetaxel] + Nc1nc2[nH]cc(CCc3ccc(C(=O)N[C@@H](CCC(=O)O)C(=O)O)cc3)c2c(=O)[nH]1 [Pemetrexed] (partner 0.2 µM)
relative viability (LCLC-97TM1; first compound 0.0002 µM): 0.167 | relative viability (LCLC-97TM1; first compound 0.000632 µM): 0.161 | relative viability (LCLC-97TM1; first compound 0.002 µM): 0.129 | relative viability (LCLC-97TM1; first compound 0.006325 µM): 0.109 | relative viability (LCLC-97TM1; first compound 0.02 µM): 0.0702 | relative viability (NCI-H661; first compound 0.0002 µM): 0.947 | relative viability (NCI-H661; first compound 0.000632 µM): 0.944 | relative viability (NCI-H661; first compound 0.002 µM): 0.799 | relative viability (NCI-H661; first compound 0.006325 µM): 0.572 | relative viability (NCI-H661; first compound 0.02 µM): 0.366 | relative viability (NCI-H1651; first compound 0.0002 µM): 0.443 | relative viability (NCI-H1651; first compound 0.000632 µM): 0.593 | relative viability (NCI-H1651; first compound 0.002 µM): 0.447 | relative viability (NCI-H1651; first compound 0.006325 µM): 0.175 | relative viability (NCI-H650; first compound 0.0002 µM): 0.941 | relative viability (NCI-H650; first compound 0.000632 µM): 0.44 | relative viability (NCI-H650; first compound 0.002 µM): 0.393 | relative viability (NCI-H650; first compound 0.006325 µM): 0.237 | relative viability (NCI-H650; first compound 0.02 µM): 0.198 | relative viability (NCI-H358; first compound 0.0002 µM): 0.16 | relative viability (NCI-H358; first compound 0.000632 µM): 0.172 | relative viability (NCI-H358; first compound 0.002 µM): 0.164 | relative viability (NCI-H358; first compound 0.006325 µM): 0.155 | relative viability (NCI-H358; first compound 0.02 µM): 0.117 | relative viability (NCI-H2087; first compound 0.0002 µM): 0.553 | relative viability (NCI-H2087; first compound 0.000632 µM): 0.509 | relative viability (NCI-H2087; first compound 0.002 µM): 0.24 | relative viability (NCI-H2087; first compound 0.006325 µM): 0.168 | relative viability (NCI-H2087; first compound 0.02 µM): 0.104 | relative viability (NCI-H2342; first compound 0.0002 µM): 0.731 | relative viability (NCI-H2342; first compound 0.000632 µM): 0.745 | relative viability (NCI-H2342; first compound 0.002 µM): 0.584 | relative viability (NCI-H2342; first compound 0.006325 µM): 0.495 | relative viability (NCI-H2342; first compound 0.02 µM): 0.493 | relative viability (SK-MES-1; first compound 0.0002 µM): 0.971 | relative viability (SK-MES-1; first compound 0.000632 µM): 0.907 | relative viability (SK-MES-1; first compound 0.002 µM): 0.499 | relative viability (SK-MES-1; first compound 0.006325 µM): 0.341 | relative viability (SK-MES-1; first compound 0.02 µM): 0.197 | relative viability (NCI-H596; first compound 0.0002 µM): 0.486 | relative viability (NCI-H596; first compound 0.000632 µM): 0.568 | relative viability (NCI-H596; first compound 0.002 µM): 0.675 | relative viability (NCI-H596; first compound 0.006325 µM): 0.441 | relative viability (NCI-H596; first compound 0.02 µM): 0.369 | relative viability (PC-3 [JPC-3]; first compound 0.0002 µM): 1.01 | relative viability (PC-3 [JPC-3]; first compound 0.000632 µM): 0.713 | relative viability (PC-3 [JPC-3]; first compound 0.002 µM): 0.513 | relative viability (PC-3 [JPC-3]; first compound 0.006325 µM): 0.265 | relative viability (PC-3 [JPC-3]; first compound 0.02 µM): 0.195 | relative viability (NCI-H1355; first compound 0.0002 µM): 1.09 | relative viability (NCI-H1355; first compound 0.000632 µM): 0.958 | relative viability (NCI-H1355; first compound 0.002 µM): 0.789 | relative viability (NCI-H1355; first compound 0.006325 µM): 0.309 | relative viability (NCI-H1355; first compound 0.02 µM): 0.198 | relative viability (NCI-H1975; first compound 0.0002 µM): 0.286 | relative viability (NCI-H1975; first compound 0.000632 µM): 0.277 | relative viability (NCI-H1975; first compound 0.002 µM): 0.232 | relative viability (NCI-H1975; first compound 0.006325 µM): 0.18 | relative viability (NCI-H1975; first compound 0.02 µM): 0.137 | relative viability (NCI-H838; first compound 0.0002 µM): 0.247 | relative viability (NCI-H838; first compound 0.000632 µM): 0.27 | relative viability (NCI-H838; first compound 0.002 µM): 0.22 | relative viability (NCI-H838; first compound 0.006325 µM): 0.157 | relative viability (NCI-H838; first compound 0.02 µM): 0.134 | relative viability (NCI-H1944; first compound 0.0002 µM): 0.619 | relative viability (NCI-H1944; first compound 0.000632 µM): 0.568 | relative viability (NCI-H1944; first compound 0.002 µM): 0.521 | relative viability (NCI-H1944; first compound 0.006325 µM): 0.248 | relative viability (NCI-H1944; first compound 0.02 µM): 0.118 | relative viability (LXF-289; first compound 0.0002 µM): 0.875 | relative viability (LXF-289; first compound 0.000632 µM): 0.8 | relative viability (LXF-289; first compound 0.002 µM): 0.363 | relative viability (LXF-289; first compound 0.006325 µM): 0.116 | relative viability (LXF-289; first compound 0.02 µM): 0.0871 | relative viability (NCI-H1666; first compound 0.0002 µM): 0.946 | relative viability (NCI-H1666; first compound 0.000632 µM): 0.808 | relative viability (NCI-H1666; first compound 0.002 µM): 0.801 | relative viability (NCI-H1666; first compound 0.006325 µM): 0.858 | relative viability (NCI-H1666; first compound 0.02 µM): 0.542 | relative viability (LU99A; first compound 0.0002 µM): 0.208 | relative viability (LU99A; first compound 0.000632 µM): 0.201 | relative viability (LU99A; first compound 0.002 µM): 0.217 | relative viability (LU99A; first compound 0.006325 µM): 0.207 | relative viability (LU99A; first compound 0.02 µM): 0.19 | relative viability (ChaGo-K-1; first compound 0.0002 µM): 0.269 | relative viability (ChaGo-K-1; first compound 0.000632 µM): 0.269 | relative viability (ChaGo-K-1; first compound 0.002 µM): 0.276 | relative viability (ChaGo-K-1; first compound 0.006325 µM): 0.268 | relative viability (ChaGo-K-1; first compound 0.02 µM): 0.181 | relative viability (LC-2-ad; first compound 0.0002 µM): 0.259 | relative viability (LC-2-ad; first compound 0.000632 µM): 0.221 | relative viability (LC-2-ad; first compound 0.006325 µM): 0.173 | relative viability (LC-2-ad; first compound 0.02 µM): 0.181 | relative viability (LK-2; first compound 0.0002 µM): 0.172 | relative viability (LK-2; first compound 0.000632 µM): 0.217 | relative viability (LK-2; first compound 0.002 µM): 0.163 | relative viability (LK-2; first compound 0.006325 µM): 0.119 | relative viability (LK-2; first compound 0.02 µM): 0.131 | relative viability (BEN; first compound 0.0002 µM): 0.68 | relative viability (BEN; first compound 0.000632 µM): 0.795 | relative viability (BEN; first compound 0.002 µM): 0.442 | relative viability (BEN; first compound 0.006325 µM): 0.449 | relative viability (BEN; first compound 0.02 µM): 0.325 | relative viability (HCC-78; first compound 0.0002 µM): 0.892 | relative viability (HCC-78; first compound 0.000632 µM): 0.868 | relative viability (HCC-78; first compound 0.002 µM): 0.88 | relative viability (HCC-78; first compound 0.006325 µM): 0.889 | relative viability (HCC-78; first compound 0.02 µM): 0.861
